Patent US20230346717A1, “IDENTIFICATION AND USE OF COMPOUNDS IN THE TREATMENT OR PREVENTION OF SEVERE ACUTE RESPIRATORY SYNDROME CORONAVIRUS 2” (priority 2020, published 2023)
Counter-ions that a name gives are not always drawn. Like-named read-outs stand apart in the source and are kept apart here.

Assays:
Assay type in all cases: cell-based, human
AGA = details: ARPE-19/HPV-16, 10 μM, 24 h
CPQ = assay: Gene expression assay, lysosome gene CPQ; details: ARPE-19/HPV-16, 10 μM, 24 h
Excerpt: (§1) A drug screen was used to test agents having the potential to treat or prevent SARS-CoV-2 infection. The retinal pigment epithelia cell line, ARPE-19/HPV-16, was chosen to establish a database of drug profiles because of its non-cancerous, human origin, with a normal karyotype. ARPE-19/HPV-16 can be easily grown as monolayer in 96-well plates and expresses a variety of well known, neuronal, cell surface receptors that include the dopamine receptor D2, the serotonin receptors 1A, 2A, and 2C, the muscarinic receptor M3, and the histamine receptor H1.
(§2) Cell lines were propagated according to supplier's specifications (ATCC Manassas, VA). Compounds were obtained from Sigma (St. Louis, MO) or Vanda Pharmaceuticals (Washington, DC). Cells were aliquoted on 96-well plates (˜2×10^5 cells/well) and incubated for 24 hours prior to providing fresh media with a drug, or the drug vehicle (water, dimethyl sulfoxide, ethanol, methanol, or phosphate-buffered saline solution). Drugs were diluted 1000-fold in buffered Advanced D-MEM/F-12 culture medium (Invitrogen, Carlsbad, CA) containing nonessential amino acids and 110 mg/L sodium pyruvate. In these conditions, no significant changes of pH were expected, which was confirmed by the monitoring of the pH indicator present in the medium.
A final 10 μM drug concentration was chosen because it is believed to fit in the range of physiological relevance. Microscopic inspection of each well was conducted at the end of the treatment to discard any samples where cells had morphological changes consistent with apoptosis. It was also verified that the drug had not precipitated in the culture medium.
Cells were harvested 24 hours after treatment and RNA was extracted using the RNeasy 96 protocol (Qiagen, Valencia, CA). Gene expression for 22,238 probe sets of 12,490 genes was generated with U133A2.0 microarrays following the manufacturer's instructions (Affymetrix, Santa Clara, CA). Drugs were profiled in duplicate or triplicate, with multiple vehicle controls on each plate. A total of 708 microarrays were analyzed including 74 for 18 antipsychotics, 499 for 448 other compounds, and 135 for vehicle controls.
The raw scan data were first converted to average difference values using MAS 5.0 (Affymetrix). The average difference values of both treatment and control data were set to a minimum threshold of 50 if below 50. For each treatment instance, all probe sets were then ranked based on their amplitude, or level of expression relative to the vehicle control (or average of controls when more than one was used). Amplitude was defined as the ratio of expression (t−v)/[(t+v)/2] where t corresponds to treatment instance and v to vehicle instance. […]

PCYOX1 = assay: Gene expression assay, lysosome gene PCYOX1; details: probe 203803_at; ARPE-19/HPV-16, 10 μM, 24 h
Excerpt: as §1
as §2, with “In these conditions, no significant changes of pH were expected, which was confirmed by the monitoring of the pH indicator present in the medium.” left out
(§3) Cells were harvested 24 hours after treatment and RNA was extracted using the RNeasy 96 protocol (Qiagen, Valencia, CA). […] A total of 708 microarrays were analyzed including 74 for 18 antipsychotics, 499 for 448 other compounds, and 135 for vehicle controls. […]

CD164 = assay: Gene expression assay, lysosome gene CD164; details: probe 208654_s_at; ARPE-19/HPV-16, 10 μM, 24 h
Excerpt: as §1
as §2, with “In these conditions, no significant changes of pH were expected, which was confirmed by the monitoring of the pH indicator present in the medium.” left out
as §3

LAMP1 = assay: Gene expression assay, lysosome gene LAMP1; details: probe 201551_s_at; ARPE-19/HPV-16, 10 μM, 24 h
Excerpt: as §1
as §2, with “In these conditions, no significant changes of pH were expected, which was confirmed by the monitoring of the pH indicator present in the medium.” left out
as §3

CTSB = assay: Gene expression assay, lysosome gene CTSB; details: probe 213274_s_at; ARPE-19/HPV-16, 10 μM, 24 h
Excerpt: as §1
as §2, with “In these conditions, no significant changes of pH were expected, which was confirmed by the monitoring of the pH indicator present in the medium.” left out
as §3

CTSH = assay: Gene expression assay, lysosome gene CTSH; details: probe 202295_s_at; ARPE-19/HPV-16, 10 μM, 24 h
Excerpt: as §1
as §2, with “In these conditions, no significant changes of pH were expected, which was confirmed by the monitoring of the pH indicator present in the medium.” left out
as §3

PSAP = assay: Gene expression assay, lysosome gene PSAP; details: probe 200866_s_at; ARPE-19/HPV-16, 10 μM, 24 h
Excerpt: as §1
as §2, with “In these conditions, no significant changes of pH were expected, which was confirmed by the monitoring of the pH indicator present in the medium.” left out
as §3

LGMN = assay: Gene expression assay, lysosome gene LGMN; details: probe 201212_at; ARPE-19/HPV-16, 10 μM, 24 h
Excerpt: as §1
as §2, with “In these conditions, no significant changes of pH were expected, which was confirmed by the monitoring of the pH indicator present in the medium.” left out
as §3

CTBS = assay: Gene expression assay, lysosome gene CTBS; details: probe 218924_s_at; ARPE-19/HPV-16, 10 μM, 24 h
Excerpt: as §1
as §2, with “In these conditions, no significant changes of pH were expected, which was confirmed by the monitoring of the pH indicator present in the medium.” left out
as §3

GALC = assay: Gene expression assay, lysosome gene GALC; details: probe 204417_at; ARPE-19/HPV-16, 10 μM, 24 h
Excerpt: as §1
as §2, with “In these conditions, no significant changes of pH were expected, which was confirmed by the monitoring of the pH indicator present in the medium.” left out
as §3

BCL10 = assay: Gene expression assay, lysosome gene BCL10; details: probe 205263_at; ARPE-19/HPV-16, 10 μM, 24 h
Excerpt: as §1
as §2, with “In these conditions, no significant changes of pH were expected, which was confirmed by the monitoring of the pH indicator present in the medium.” left out
as §3

CTSK = assay: Gene expression assay, lysosome gene CTSK; details: probe 202450_s_at; ARPE-19/HPV-16, 10 μM, 24 h
Excerpt: as §1
as §2, with “In these conditions, no significant changes of pH were expected, which was confirmed by the monitoring of the pH indicator present in the medium.” left out
as §3

lysosome pathway genes = assay: Enrichment analysis of genes downregulated by amantadine (top 500 differentially expressed probes); details: ARPE-19/HPV-16, 10 μM, 24 h
Excerpt: as §1
as §2, with “In these conditions, no significant changes of pH were expected, which was confirmed by the monitoring of the pH indicator present in the medium.” left out
as §3

RNASET2 = assay: Gene expression assay, lysosome gene RNASET2; details: probe 217983_s_at; ARPE-19/HPV-16, 10 μM, 24 h
Excerpt: as §1
as §2, with “In these conditions, no significant changes of pH were expected, which was confirmed by the monitoring of the pH indicator present in the medium.” left out
as §3

[1] = test system: steroid sulfatase (microsomal); assay: Gene expression assay, lysosome gene steroid sulfatase (microsomal); details: probe 203767_s_at; ARPE-19/HPV-16, 10 μM, 24 h
Excerpt: as §1
as §2, with “In these conditions, no significant changes of pH were expected, which was confirmed by the monitoring of the pH indicator present in the medium.” left out
as §3

SMILES: NC12CC3CC(CC(C3)C1)C2 [Amantadine Hydrochloride]
- avg_tx (log2) AGA (AGA; probe 204332_s_at): 9.18 log2
- diff (log2) AGA (AGA; probe 204332_s_at): −1.39 log2
- avg_tx (log2) AGA (AGA; probe 204333_s_at): 6.57 log2
- diff (log2) AGA (AGA; probe 204333_s_at): −1.6 log2
- avg_tx (log2) AGA (AGA; probe 216064_s_at): 8.12 log2
- diff (log2) AGA (AGA; probe 216064_s_at): −1.38 log2
- avg_tx (log2) CPQ (CPQ; probe 203501_at): 6.41 log2
- diff (log2) CPQ (CPQ; probe 203501_at): −1.55 log2
- avg_tx (log2) CPQ (CPQ; probe 208454_s_at): 7.3 log2
- diff (log2) CPQ (CPQ; probe 208454_s_at): −1.34 log2
- avg_tx (log2) PCYOX1 (PCYOX1): 7.15 log2
- diff (log2) PCYOX1 (PCYOX1): −1.57 log2
- avg_tx (log2) CD164 (CD164): 8.7 log2
- diff (log2) CD164 (CD164): −1.34 log2
- avg_tx (log2) LAMP1 (LAMP1): 7.87 log2
- diff (log2) LAMP1 (LAMP1): −1.4 log2
- avg_tx (log2) CTSB (CTSB): 7.75 log2
- diff (log2) CTSB (CTSB): −1.48 log2
- avg_tx (log2) CTSH (CTSH): 9.62 log2
- diff (log2) CTSH (CTSH): −2.51 log2
- avg_tx (log2) PSAP (PSAP): 10.59 log2
- diff (log2) PSAP (PSAP): −1.36 log2
- avg_tx (log2) LGMN (LGMN): 8.33 log2
- diff (log2) LGMN (LGMN): −1.35 log2
- avg_tx (log2) CTBS (CTBS): 6.59 log2
- diff (log2) CTBS (CTBS): −1.32 log2
- avg_tx (log2) GALC (GALC): 6.58 log2
- diff (log2) GALC (GALC): −2.06 log2
- avg_tx (log2) BCL10 (BCL10): 7.44 log2
- diff (log2) BCL10 (BCL10): −1.25 log2
- avg_tx (log2) CTSK (CTSK): 7.09 log2
- diff (log2) CTSK (CTSK): −1.81 log2
- expression reduction of the top 500 differentially expressed probes (383 genes) (lysosome pathway genes): at least 50%
- avg_tx (log2) RNASET2 (RNASET2): 8 log2
- diff (log2) RNASET2 (RNASET2): −1.81 log2
- avg_tx (log2) steroid sulfatase (microsomal) [1]: 5.55 log2
- diff (log2) steroid sulfatase (microsomal) [1]: −1.47 log2
